In patent US20040242498A1, “CXCR3 antagonists” (priority 2003, published 2004):
Entries after “also recorded” stand apart in the source; their conditions may differ.

Experiments:
[1] = Excretion of compound 101 and metabolites in urine and bile of bile duct cannulated rats; type: in vivo, Sprague Dawley rat; settings: bile duct cannulated male rats
Protocol: In addition, compound 101 was administered intravenously or orally to bile duct cannulated male Sprague Dawley rats. Urine and bile samples were collected over a period of 24 hours and analyzed by liquid chromatography/mass spectrometry. Compound 101 was detected in a small amount (<1% of the administered dose) in urine and in bile. In urine, compound 103, the pyridyl-N-oxide of compound 101, was detected. Five metabolites, compounds 103, 105, 107, 109 and 111, were all detected in bile excretions; compound 111 was detected in a trace amount in bile. A proposed metabolic pathway for compound 101 is provided at FIG. 3.
Overall, N-oxidation and O-deethylation occurred to similar extents. The O-deethyl metabolite was detected mainly as a glucuronide conjugate, compound 109. […] Only trace amounts of the glucuronide of the N-oxidized O-deethyl metabolite, compound […], were detected. The detected metabolites, and the relative amounts thereof, in urine and bile agree with the metabolites detected with rat liver microsomal fractions and rat hepatocytes in vitro as discussed above.

[2] = Metabolites of compound 101 with human liver microsomal fractions; type: in vitro ADME; settings: formed from compound 101 (10 μM), microsomal protein 1 mg/mL, NADPH, 37° C., 105 min, LCMS
Protocol: (§1) Compound 101 was contacted with microsomal fractions from Sprague Dawley rat, dog (beagle), rhesus monkey and human liver to detect and identify resulting metabolites. In particular, Compound 101 in PBS (10 μM) was incubated in a mixture of microsomal protein (1 mg/mL), EDTA (1.0 mM) and NADPH (5 mM) at 37° C. for a total of 105 min. The reaction was stopped by the addition of acetonitrile containing 0.2% formic acid (400 μL). Samples were centrifuged and the supernatant was subjected to LCMS analysis.
(§2) Compound 103, the pyridyl-N-oxide product of compound 101, was detected following contact with the microsomal fractions from all species. Compound 105, the deethylation product of compound 101, was also detected following contact with the microsomal fractions from all species. […] With human microsomal fractions, an amount of compound 107, the deethylation and pyridyl-N-oxide product of compound 101, was also detected.

[3] = Metabolites of compound 101 with rhesus monkey liver microsomal fractions and hepatocytes; type: in vitro ADME; settings: formed from compound 101; liver microsomal fractions (10 μM, 105 min) or cryopreserved hepatocytes
Protocol: as §1, §2
(§3) Compound 101 was also incubated with intact dog and monkey liver cells (cryopreserved hepatocytes). Following incubation, the formation of compound 109, the glucuronide adduct of compound 105, was detected.

[4] = Metabolites of compound 101 with dog liver microsomal fractions and hepatocytes; type: in vitro ADME, dog (beagle); settings: formed from compound 101; liver microsomal fractions (10 μM, 105 min) or cryopreserved hepatocytes
Protocol: as §1, §2, §3

[5] = Metabolites of compound 101 with rat liver microsomal fractions; type: in vitro ADME, Sprague Dawley rat; settings: formed from compound 101 (10 μM), 105 min
Protocol: as §1, §2

[6] = system: any cytochrome p450 isoform, including 3A4; assay: Inhibition or induction of cytochrome p450 isoforms by compound 101; type: in vitro ADME, human
[7] = after compound 101 intravenously or orally, 24 hours, LC/MS
[8] = compound 101 intravenously or orally, 24 hours collection

Detection in bile [1, 7]	Metabolic Forms of Compound 101: Rat (in vivo), excreta in which detected [1, 8]	Metabolic Forms of Compound 101: Human [2]	Metabolic Forms of Compound 101: Monkey [3]	Metabolic Forms of Compound 101: Dog [4]	Detection in urine [1, 7]	Amount detected in urine and in bile, of the administered dose (Rat in vivo) [1, 8] [%]	Inhibition or induction of cytochrome p450 isoforms [6]	SMILES	Metabolic Forms of Compound 101: Rat (in vitro) [5]
detected	bile	detected; also recorded: minor	detected; also recorded: minor	detected; also recorded: minor				C[C@H](c1nc2ncccc2c(=O)n1-c1ccc(O)cc1)N(Cc1cccnc1)C(=O)Cc1ccc(OC(F)(F)F)cc1 [Compound 105]	approximately equal amounts; also recorded: major
						<1	little or no inhibition or induction	CCOc1ccc(-n2c([C@@H](C)N(Cc3cccnc3)C(=O)Cc3ccc(OC(F)(F)F)cc3)nc3ncccc3c2=O)cc1 [Compound 101]	
detected; also recorded: trace amounts	bile		detected; also recorded: minor	detected; also recorded: minor				C[C@H](c1nc2ncccc2c(=O)n1-c1ccc(OC2OC(C(=O)O)C(O)C(O)C2O)cc1)N(Cc1cccnc1)C(=O)Cc1ccc(OC(F)(F)F)cc1 (stereo partly shown) [Compound 109]	
trace amount	bile (traces)							C[C@H](c1nc2ncccc2c(=O)n1-c1ccc(OC2OC(C(=O)O)C(O)C(O)C2O)cc1)N(Cc1ccc[n+]([O-])c1)C(=O)Cc1ccc(OC(F)(F)F)cc1 (stereo partly shown) [Compound 111]	

SMILES	Detection in bile [1, 7]	Metabolic Forms of Compound 101: Rat (in vivo), excreta in which detected [1, 8]	Metabolic Forms of Compound 101: Human [2]	Metabolic Forms of Compound 101: Monkey [3]	Metabolic Forms of Compound 101: Dog [4]	Detection in urine [1, 7]	Amount detected in urine and in bile, of the administered dose (Rat in vivo) [1, 8] [%]	Inhibition or induction of cytochrome p450 isoforms [6]	Metabolic Forms of Compound 101: Rat (in vitro) [5]
C[C@H](c1nc2ncccc2c(=O)n1-c1ccc(O)cc1)N(Cc1ccc[n+]([O-])c1)C(=O)Cc1ccc(OC(F)(F)F)cc1 [Compound 107]	detected; also recorded: significant amounts	bile	detected; also recorded: minor	minor					
CCOc1ccc(-n2c([C@@H](C)N(Cc3ccc[n+]([O-])c3)C(=O)Cc3ccc(OC(F)(F)F)cc3)nc3ncccc3c2=O)cc1 [Compound 103]	detected	urine & bile	more compound 103 than compound 105; also recorded: major	more compound 103 than compound 105; also recorded: major	more compound 103 than compound 105; also recorded: major	detected			approximately equal amounts; also recorded: major
